Laboratory results taken from patent US8633301B2, “Antitumor combinations containing antibodies recognizing specifically CD38 and vincristine” (Sanofi, priority 2008, dated 2014).
Several values for one entry are separate records, joined by “and”; a condition that tells them apart may be missing. Identical values can stand only once. Entries after “also recorded” stand apart in the source; their conditions may differ.

Tests used:
[1] = Toxicity (body weight change, drug death) in DND-41 tumor-bearing SCID mice; type: in vivo
[2] = tested on: human T-cell acute lymphoblastic leukemia (T-ALL) cell line, DND-41; assay: Antitumor efficacy against advanced DND-41 tumors implanted in SCID mice; settings: for T-C (tumor growth delay): time to reach 750 mg; for TFS (tumor free survivors): end of study day 160
Procedure: A product is considered to be active if log10 cell kill is greater than or equal to 0.7. A product is considered to be very active if log10 cell kill is greater than or equal to 2.8.
The animals subjected to the experiment, generally mice, are subcutaneously grafted bilaterally with 30 to 60 mg of a tumor fragment on day 0. The animals bearing tumors are randomized based on their tumor size before being subjected to the various treatments and controls. Chemotherapy begins when tumors have reached a predetermined size after grafting, depending on the type of tumor, and the animals are observed every day. […] The groups are then weighed once or twice a week until the end of the trial.
The tumors are measured 1 to 5 times a week, depending on the tumor doubling time, until the tumor reaches approximately 2 g, or until the animal dies (if this occurs before the tumor reaches 2 g). The animals are necropsied immediately after euthanasia or death.
The selected tumor model was a transplantable human T-cell acute lymphoblastic leukemia (T-ALL) cell line, DND-41, implanted in SCID mice.
Vincristine was formulated in 5% glucose in water.
Tumor doubling time=3.4 days.

[3] = target: T1, murine CD38 (Mus musculus, UniProt P56528); assay: Cross-reactivity of the antibody with murine CD38; type: binding
T1 sequence (P56528 1-304): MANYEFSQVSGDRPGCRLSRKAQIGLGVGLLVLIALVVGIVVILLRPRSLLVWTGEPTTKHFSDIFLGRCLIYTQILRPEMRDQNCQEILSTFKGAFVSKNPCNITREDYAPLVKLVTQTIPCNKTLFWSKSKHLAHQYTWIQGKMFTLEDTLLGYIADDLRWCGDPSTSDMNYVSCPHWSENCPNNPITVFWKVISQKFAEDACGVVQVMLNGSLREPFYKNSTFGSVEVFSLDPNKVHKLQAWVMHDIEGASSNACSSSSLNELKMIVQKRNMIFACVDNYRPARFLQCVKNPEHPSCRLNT

[4] = vincristine alone 0.3 mg/kg/inj (total 1.2) IV
[5] = vincristine alone 0.5 mg/kg/inj (total 2.0) IV
[6] = vincristine alone 0.8 mg/kg/inj (total 3.2) IV
[7] = vincristine alone 0.3 mg/kg/inj IV
[8] = vincristine alone 0.5 mg/kg/inj IV
[9] = vincristine alone 0.8 mg/kg/inj IV
[10] = hu38SB19 alone 40.0 mg/kg/inj (total 160.0) IV days 18, 21, 24, 27
[11] = hu38SB19 alone 40.0 mg/kg/inj IV

CC[C@]1(O)C[C@H]2CN(CCc3c([nH]c4ccccc34)[C@@](C(=O)OC)(c3cc4c(cc3OC)N(C=O)[C@H]3[C@@](O)(C(=O)OC)[C@H](OC(C)=O)[C@]5(CC)C=CCN6CC[C@]43[C@@H]65)C2)C1 [vincristine, Vincristine]
BWC (body weight change) at nadir [1, 4]: −0.4% | drug death ([1]; vincristine alone 0.3 mg/kg/inj (total 1.2) IV days 18, 21, 24, 27): 0/6 | BWC (body weight change) at nadir [1, 5]: −5.3% | drug death ([1]; vincristine alone 0.5 mg/kg/inj (total 2.0) IV days 18, 21, 24, 27): 0/6 | BWC (body weight change) at nadir [1, 6]: −10.4% | drug death ([1]; vincristine alone 0.8 mg/kg/inj (total 3.2) IV days 18, 21, 24, 27): 0/6 | BWC (body weight change) at nadir ([1]; vincristine alone 1.3 mg/kg/inj (total 5.2) IV): −25.2% | drug death ([1]; vincristine alone 1.3 mg/kg/inj (total 5.2) IV days 18, 21, 24, 27): 0/6 | comments (activity/toxicity rating) ([1]; vincristine alone 1.3 mg/kg/inj IV): Toxic (−25% BWC) | body weight loss at nadir ([1]; vincristine alone 1.3 mg/kg/injection, nadir on day 27): 25.2% | highest nontoxic dose (HNTD) ([1]; vincristine alone IV days 18, 21, 24, 27, total injected dose 3.2 mg/kg): 0.8 mg/kg/inj | log10 cell kill [2, 4]: 1.4 | T-C (tumor growth delay) [2, 4]: 15.6 days | comments (activity/toxicity rating) [2, 7]: remained active | TFS (tumor free survivors) [2, 7]: 0/6 | log10 cell kill [2, 5]: 3.8 | T-C (tumor growth delay) [2, 5]: 43.3 days | comments (activity/toxicity rating) [2, 8]: Highly active | TFS (tumor free survivors) [2, 8]: no TFS and 0/6 | log10 cell kill [2, 6]: 4.4 | T-C (tumor growth delay) [2, 6]: 49.6 days | comments (activity/toxicity rating) [2, 9]: HNTD - Highly active | TFS (tumor free survivors) [2, 9]: no TFS and 0/6

hu38SB19: humanized anti-CD38 monoclonal antibody 38SB19; VH SEQ ID NO: 66, VL SEQ ID NO: 62 or 64
tolerability / toxicity ([1]; hu38SB19 alone 40 mg/kg/inj): well tolerated | BWC (body weight change) at nadir [1, 10]: −2.1% | drug death [1, 10]: 0/6 | cross-reactivity with murine CD38 [3]: lack of cross-reactivity | log10 cell kill [2, 10]: 0.5 | T-C (tumor growth delay) [2, 10]: 6.1 days | comments (activity/toxicity rating) [2, 11]: not active; also recorded: HDT- Inactive | TFS (tumor free survivors) [2, 11]: 0/6
